The numbers were not newly measured in patent US9014457B2, “Quantifying cell death” (UCL Business PLC, priority 2009, dated 2015), which cites them from elsewhere.

The test system of the series is astrocyte cultures (NADPH oxidase). The conditions noted are these: cited from earlier work.

On to `c1ccc2c(c1)[I+]c1ccccc1-2` [DPI], for which the PMA-induced lucigenin response entry is listed as “blocked”. In the case of superoxide dismutase, the PMA-induced lucigenin response entry was “reversed”.
